According to patent US5606020A, “6 (R)-l-erythro-5,6,7,8-tetrahydrobiopterin receptor” (Suntory Limited, priority 1991, dated 1997):
Values belong to the compound of their own block, whether it stands above or below them.

Key:
[1] = supplementation therapy; cited from earlier work
[2] = system: release of neurotransmitter amines such as dopamine (DA), norepinephrine and serotonin; assay: Release and liberation of neurotransmitters
[3] = biological target: known enzymes which participate in the biosynthesis of 6R-BH4 or enzymes for which 6R-BH4 acts as a coenzyme; settings: enzymes of 6R-BH4 biosynthesis or using 6R-BH4 as coenzyme; cited from earlier work
6R-BH4 receptor [4] = biological target: T1, 6R-BH4 receptor (Rattus norvegicus, UniProt P29476); assay: Scatchard plot analysis of [6-^3 H]6R-BH4 binding to solubilized fraction of rat cerebellum
T1 construct: solubilized fraction of rat cerebellum; from tissue; host or cells: rat cerebellum, P2 membrane fraction solubilized with CHAPS (not purified)
Experimental: The Scatchard plot analysis may be carried out, for example, as follows. In an appropriate buffer solution, for example, 50 mM Tris hydrochloride (pH 7.4), 100 mM NaCl, 10 mM MgCl2, 2 mM ascorbic acid and 6 mM cysteine solution, a fraction containing the receptor solubilized with CHAPS is incubated with [6-^3 H]6R-BH4 at various concentrations under appropriate conditions, for example, at 37° C. for 10 minutes. Then the radioactivity is measured by a conventional method and plotted. From the plots, Kd (dissociation constant) and Bmax are determined and employed as indicators of the affinity.
By using a determined amount of the solubilized fraction of rat cerebellum, Scatchard plot analysis with regard to the solubilized receptor protein of the present invention was performed by the conventional method. […]
The reaction mixture was cooled on ice for 10 minutes and then filtered through a glass filter. […] 2 ml of ethanol and 8 ml of creasol (Nacalai Tesque) were added to the filter and the radioactivity on the filter was measured in a liquid scintillation counter.
FIG. 4 is a graph showing the radioactivities which bound to the receptor when [6-^3 H]6R-BH4 was added at various concentrations to a determined amount of the solubilized receptor. […] Accordingly, the saturation of the specific binding can be calculated as the difference between the total and nonspecific bindings. […]

6R-BH4 receptor [5] = biological target: T1, 6R-BH4 receptor; assay: Competitive binding test between various compounds and 13 nM [6-^3 H]6R-BH4, solubilized fraction of rat cerebellum; settings: for affinity of the receptor to 6R-BH4 relative to its affinity to the compound (from IC50 data): 13 nM [6-^3 H]6R-BH4, solubilized fraction of rat cerebellum
Experimental: The specificity of the receptor of the present invention in binding to 6R-BH4 can be confirmed by a competitive binding test with the use of various compounds at varying concentrations.
In this method, the above-mentioned compounds at varying concentrations (for example, biopterin as will be described in Example 6 hereinafter) are added as a ligand simultaneously with [6-^3 H]6R-BH4 to the reaction mixture and the reaction is performed. The ability of the receptor of the present invention to bind to 6R-BH4 will not be inhibited to any substantial extent by these ligands.
By using the solubilized fraction of rat cerebellum, a competitive binding test between various compounds at varying concentrations and 13 nM of [6-^3 H]6R-BH4 was carried out.
About 0.3 mg (protein) of the solubilized fraction obtained in Example 3 was incubated together with 13 nM of [6-^3 H]6R-BH4 in a 200 μl solution of 50 mM Tris hydrochloride (pH 7.4), 100 mM NaCl, 10 mM MgCl2, 2 mM ascorbic acid and 6 mM cysteine at 37° C. for 10 minutes. Then 3 mg/ml (final concentration) of bovine γ-globulin and 15% (final concentration) of polyethylene glycol 6000 were added to cease the reaction.
Next, the reaction mixture was cooled on ice for 10 minutes and then passed through a glass filter. After being washed 4 times with 4 ml portions of 8% polyethylene glycol and 10 mM Tris hydrochloride (pH 7.4), the filter was taken off and placed in a vial. 2 ml of ethanol and 8 ml of creasol (Nacalai Tesque) were added to the filter and the radioactivity on the filter was measured in a liquid scintillation counter.
The results thus obtained were referred to as total binding. Then various compounds at varying concentrations were added as a ligand simultaneously with [6-^3 H]6R-BH4 in the above procedure, and the reaction was effected.

T1 sequence (P29476 whole entry): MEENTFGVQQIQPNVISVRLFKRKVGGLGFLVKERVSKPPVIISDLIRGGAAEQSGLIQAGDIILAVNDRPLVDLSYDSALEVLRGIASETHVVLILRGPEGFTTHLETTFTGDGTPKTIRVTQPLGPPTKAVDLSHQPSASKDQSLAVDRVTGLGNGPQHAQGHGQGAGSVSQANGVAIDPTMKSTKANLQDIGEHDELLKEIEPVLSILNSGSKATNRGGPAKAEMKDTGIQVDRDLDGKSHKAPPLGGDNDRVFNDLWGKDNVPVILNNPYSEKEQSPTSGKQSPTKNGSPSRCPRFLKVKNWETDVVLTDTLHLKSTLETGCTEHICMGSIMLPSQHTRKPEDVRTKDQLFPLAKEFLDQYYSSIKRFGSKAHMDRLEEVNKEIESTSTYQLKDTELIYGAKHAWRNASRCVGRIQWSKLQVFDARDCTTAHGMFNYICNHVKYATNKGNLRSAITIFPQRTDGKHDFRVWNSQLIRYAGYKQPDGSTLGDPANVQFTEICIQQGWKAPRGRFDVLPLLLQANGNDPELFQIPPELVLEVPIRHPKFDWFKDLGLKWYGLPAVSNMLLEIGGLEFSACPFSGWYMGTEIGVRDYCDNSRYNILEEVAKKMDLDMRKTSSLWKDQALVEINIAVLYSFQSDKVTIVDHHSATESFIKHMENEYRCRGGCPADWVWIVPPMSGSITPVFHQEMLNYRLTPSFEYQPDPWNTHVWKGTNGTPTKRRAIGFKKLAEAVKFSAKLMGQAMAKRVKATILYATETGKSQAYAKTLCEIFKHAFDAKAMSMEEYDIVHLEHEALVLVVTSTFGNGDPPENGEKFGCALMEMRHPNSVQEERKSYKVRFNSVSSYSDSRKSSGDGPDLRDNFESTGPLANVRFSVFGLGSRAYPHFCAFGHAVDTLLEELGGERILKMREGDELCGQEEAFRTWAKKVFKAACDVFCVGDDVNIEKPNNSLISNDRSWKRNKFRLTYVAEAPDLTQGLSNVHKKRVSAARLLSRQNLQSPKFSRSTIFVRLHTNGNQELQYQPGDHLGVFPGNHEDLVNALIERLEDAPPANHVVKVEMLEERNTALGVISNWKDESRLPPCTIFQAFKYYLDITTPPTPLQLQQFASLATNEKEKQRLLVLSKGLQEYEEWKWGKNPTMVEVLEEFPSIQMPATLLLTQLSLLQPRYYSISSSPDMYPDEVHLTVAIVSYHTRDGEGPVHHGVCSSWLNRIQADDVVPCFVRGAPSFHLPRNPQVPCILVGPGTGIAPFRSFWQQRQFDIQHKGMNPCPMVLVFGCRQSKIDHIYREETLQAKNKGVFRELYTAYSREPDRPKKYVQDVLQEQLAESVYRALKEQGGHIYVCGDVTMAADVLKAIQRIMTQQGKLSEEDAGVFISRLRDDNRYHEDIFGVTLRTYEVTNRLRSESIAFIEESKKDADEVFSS

Bmax (maximum binding constant) (6R-BH4 receptor [4]): 550 fmol/mg protein
Kd (6R-BH4 receptor [4]; 37° C. for 10 minutes, read-out: Kd (dissociation constant)): 21 nM
SMILES: C[C@H](O)[C@H](O)[C@H]1CNc2nc(N)[nH]c(=O)c2N1 [6R-BH4, 6(R)-L-erythro-5,6,7,8-tetrahydrobiopterin]
treatment of malignant phenylketonuria, juvenile Parkinson's disease and infantile autism of the dysbolism type [1]: effective
liberation of glutamic acid, aspartic acid or GABA via DA and release of acetylcholine via serotonin [2]: enhances
release and liberation of neurotransmitter amines such as dopamine (DA), norepinephrine and serotonin [2]: enhances
Kd for known enzymes [3]: several ten

affinity of the receptor to 6R-BH4 relative to its affinity to the compound (from IC50 data) (6R-BH4 receptor [5]): > 1,000 times
SMILES: C[C@H](O)[C@H](O)[C@@H]1CNc2nc(N)[nH]c(=O)c2N1 [6S-BH4]

affinity of the receptor to 6R-BH4 relative to its affinity to the compound (from IC50 data) (6R-BH4 receptor [5]): more than 50 times
SMILES: C[C@H](O)[C@H](O)C1=Nc2c(nc(N)[nH]c2=O)NC1 [BH2, 7,8-dihydrobiopterin]

SMILES: Nc1nc2c(c(=O)[nH]1)NC(CNc1ccc(C(=O)N[C@@H](CCC(=O)O)C(=O)O)cc1)CN2 (stereo partly drawn) [FAH4, tetrahydrofolic acid]
binding ability to the receptor (6R-BH4 receptor [5]; competitive binding, solubilized fraction of rat cerebellum): does not show any substantial binding ability
